Where “and” joins values, the source holds several entries; their conditions need not be identical. Equal values may be shown once. Read-outs that look alike come from different tables or passages of the source.
Assays:
[1] = Plasma pharmacokinetics in rats after a 30-min intravenous infusion of Kang-Ai injection; type: in vivo, Sprague–Dawley rats; conditions: male, Sprague-Dawley
Summary of the method: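 Fasted male Sprague–Dawley rats (250 ± 20 g) got a single 30-min tail-vein infusion of Kang-Ai injection at 6 mL/kg. Jugular blood was sampled from 5 min to 12 h for plasma. Parameters came from non-compartmental analysis (trapezoidal AUC), n = 3.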

CYP3A4 = CYP3A4 (Homo sapiens, UniProt P08684); assay: Inhibition of recombinant CYP3A4 (probe nifedipine); type: in vitro ADME; conditions: mean ± SD of triplicate, unit not given (IC50 classes in μM)
Protocol: (§1) In this study, phenacetin (100 μM), coumarin (100 μM), bupropion (100 μM), paclitaxel (60 μM), tolbutamide (200 μM), mephenytoin (100 μM), chlorzoxazone (200 μM) and nifedipine (40 μM) have been used as the probe substrates for CYP1A2, 2A6, 2B6, 2C8, 2C9, 2C19, 2E1 and 3A4, respectively.

[2] = Biliary (hepatobiliary) excretion in rats after a 30-min infusion of Kang-Ai injection; type: in vivo, Sprague–Dawley rats
Summary of the method: (§2)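 Urine collected in metabolic cages at 0–4, 4–8, 8–12 h and bile at 0–3, 3–6, 6–9, 9–12 h after infusion start, weighed and frozen at −80 °C. Non-compartmental analysis; CLR and CLB as cumulative urinary or biliary amount divided by plasma AUC0-∞, fe-U and fe-B as cumulative amount/dose; mean ± SD (n = 3).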

[3] = Stability tests of analytes in rat plasma QC samples; type: in vitro ADME
Protocol: […] The dilution integrity was investigated by analyzing six replicate samples with each analyte, and each analyte were diluted 10-fold with blank rat matrix. Furthermore, the diluted samples were analyzed using freshly prepared calibration curve to calculate RE and RSD, which should be no more than ± 15% as criterion.

CYP2A6 = biological target: T1, CYP2A6 (Homo sapiens, UniProt P11509); assay: Inhibition of recombinant CYP2A6 (probe coumarin); type: in vitro ADME
T1 sequence (P11509 1-494): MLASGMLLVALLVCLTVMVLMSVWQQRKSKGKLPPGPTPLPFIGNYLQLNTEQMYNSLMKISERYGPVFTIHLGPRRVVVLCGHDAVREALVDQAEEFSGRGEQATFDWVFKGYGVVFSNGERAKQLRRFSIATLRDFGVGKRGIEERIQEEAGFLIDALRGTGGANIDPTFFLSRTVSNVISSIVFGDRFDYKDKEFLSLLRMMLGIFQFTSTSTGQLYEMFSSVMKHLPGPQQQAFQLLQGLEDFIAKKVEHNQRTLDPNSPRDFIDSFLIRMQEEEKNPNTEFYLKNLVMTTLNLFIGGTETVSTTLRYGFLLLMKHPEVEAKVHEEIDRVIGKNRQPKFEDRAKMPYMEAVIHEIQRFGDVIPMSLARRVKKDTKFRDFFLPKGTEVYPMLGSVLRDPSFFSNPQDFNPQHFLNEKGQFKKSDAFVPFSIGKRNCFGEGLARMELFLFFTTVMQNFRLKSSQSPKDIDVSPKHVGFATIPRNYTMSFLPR
Protocol: as §1

[4] = Urinary (renal) excretion in rats after a 30-min infusion of Kang-Ai injection; type: in vivo, Sprague–Dawley rats; conditions: for CL renal: male, Sprague-Dawley, rat
Summary of the method: as §2

CYP2C9 = CYP2C9 (Homo sapiens, UniProt P11712); assay: Inhibition of recombinant CYP2C9 (probe tolbutamide); type: in vitro ADME; conditions: mean ± SD of triplicate, unit not given (IC50 classes in μM)
Protocol: as §1

[5] = rat plasma, nominal conc. 20 nM
[6] = rat plasma, nominal conc. 100 nM
[7] = rat plasma, nominal conc. 400 nM

Chain of CYP3A4 (P08684 whole entry): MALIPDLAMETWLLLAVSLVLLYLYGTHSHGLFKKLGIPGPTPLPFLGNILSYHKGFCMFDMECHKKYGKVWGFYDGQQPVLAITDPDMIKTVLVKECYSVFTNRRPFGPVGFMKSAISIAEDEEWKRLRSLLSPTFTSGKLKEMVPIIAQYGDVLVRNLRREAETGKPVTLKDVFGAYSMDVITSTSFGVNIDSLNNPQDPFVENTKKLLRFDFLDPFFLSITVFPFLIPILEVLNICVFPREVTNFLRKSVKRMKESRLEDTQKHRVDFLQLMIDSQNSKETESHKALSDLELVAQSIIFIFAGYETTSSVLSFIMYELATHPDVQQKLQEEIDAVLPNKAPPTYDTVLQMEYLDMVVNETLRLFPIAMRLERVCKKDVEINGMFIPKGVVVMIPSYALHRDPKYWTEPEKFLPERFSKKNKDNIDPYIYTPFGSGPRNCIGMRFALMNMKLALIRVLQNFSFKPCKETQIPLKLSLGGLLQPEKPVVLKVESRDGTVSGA
Chain of CYP2C9 (P11712 whole entry): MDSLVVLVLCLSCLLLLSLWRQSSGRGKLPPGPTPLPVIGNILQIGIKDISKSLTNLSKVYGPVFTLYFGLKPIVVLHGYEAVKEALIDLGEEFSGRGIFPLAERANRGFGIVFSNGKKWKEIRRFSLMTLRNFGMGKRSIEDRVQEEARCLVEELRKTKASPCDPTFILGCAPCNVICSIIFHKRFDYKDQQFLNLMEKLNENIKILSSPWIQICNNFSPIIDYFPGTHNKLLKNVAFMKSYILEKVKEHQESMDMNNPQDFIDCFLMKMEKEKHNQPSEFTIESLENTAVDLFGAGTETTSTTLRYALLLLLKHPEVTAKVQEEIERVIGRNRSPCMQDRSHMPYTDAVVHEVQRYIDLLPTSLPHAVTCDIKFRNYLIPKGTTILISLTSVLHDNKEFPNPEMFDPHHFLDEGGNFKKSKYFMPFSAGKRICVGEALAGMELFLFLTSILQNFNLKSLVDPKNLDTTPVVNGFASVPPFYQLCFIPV

Q: With CC(C)=CCC[C@](C)(O[C@@H]1O[C@H](CO[C@@H]2O[C@@H](CO)[C@H](O)[C@H]2O)[C@@H](O)[C@H](O)[C@H]1O)[C@H]1CC[C@]2(C)[C@@H]1[C@H](O)C[C@@H]1[C@@]3(C)CC[C@H](O[C@@H]4O[C@H](CO)[C@@H](O)[C@H](O)[C@H]4O[C@@H]4O[C@H](CO)[C@@H](O)[C@H](O)[C@H]4O)C(C)(C)[C@@H]3CC[C@]12C [Compound D3, Ginsenoside Rc] as the compound, how does the clearance ([1]; plasma, rat, 30-min iv infusion of Kang-Ai injection 6 mL/kg, Table 1 unit, read-out: CLtot, p (converted)) read?
A: 0.0933 mL/min

Q: What about the Vd ([1]; plasma, rat, 30-min iv infusion of Kang-Ai injection 6 mL/kg, Table 1 unit, read-out: VSS) of the same compound?
A: 0.0378 ± 0.0102 L

Q: And the Cmax ([1]; rat plasma, 30-min iv infusion of Kang-Ai injection 6 mL/kg, read-out: Cmax)?
A: 0.877 ± 0.0395 µM

Q: And the half-life ([1]; rat plasma, 30-min iv infusion of Kang-Ai injection 6 mL/kg, read-out: t1/2 (converted))?
A: 6.29 ± 3.17 h

Q: And the IC50 (CYP3A4; recombinant isozyme, read-out: IC50 towards CYP3A4)?
A: > 100 µM

Q: What about the detection in bile ([2]; rat bile, Kang-Ai injection 6 mL/kg iv) of the same compound?
A: not detected in bile

Q: And the “At -80 °C for 48 h, Mean±SD” value [3, 5]?
A: 21.79 ± 0.54 nM

Q: What about the “At -80 °C for 48 h, RE” value [3, 5] of the same compound?
A: 11.90%

Q: What about the “Extracted samples at 8 °C for 18 h, Mean±SD” value (“Extracted samples … Mean±SD” for short) [3, 5] of the same compound?
A: 21.26 ± 0.64 nM

Q: And the “Extracted samples at 8 °C for 18 h, RE” value [3, 5]?
A: 9.82%

Q: What about the “Short-term stability at room temperature for 6 h, Mean±SD” value (“Short-term stability … Mean±SD” below) [3, 5] of the same compound?
A: 21.00 ± 1.54 nM

Q: And the “Short-term stability at room temperature for 6 h, RE” value (“Short-term stability … for 6 h, RE” below) [3, 5]?
A: 10.56%

Q: What about the “Three freeze-thaw cycles (-80 °C ↔ 23 °C), Mean±SD” value (from here on “Three freeze-thaw cycles … Mean±SD”) [3, 5] of the same compound?
A: 22.31 ± 0.31 nM

Q: What about the “Three freeze-thaw cycles (-80 °C ↔ 23 °C), RE” value [3, 5] of the same compound?
A: 12.70%

Q: And the “At -80 °C for 48 h, Mean±SD” value [3, 6]?
A: 92.14 ± 3.15 nM

Q: And the “At -80 °C for 48 h, RE” value [3, 6]?
A: -10.73%

Q: And the “Extracted samples … Mean±SD” value [3, 6]?
A: 91.90 ± 3.48 nM

Q: And the “Extracted samples at 8 °C for 18 h, RE” value [3, 6]?
A: -12.09%

Q: What about the “Short-term stability … for 6 h, RE” value [3, 6] of the same compound?
A: -13.45%

Q: And the “Three freeze-thaw cycles … Mean±SD” value [3, 6]?
A: 107.11 ± 6.52 nM

Q: What about the “Three freeze-thaw cycles (-80 °C ↔ 23 °C), RE” value [3, 6] of the same compound?
A: 11.88%

Q: And the “At -80 °C for 48 h, Mean±SD” value [3, 7]?
A: 421.69 ± 7.21 nM

Q: What about the “At -80 °C for 48 h, RE” value [3, 7] of the same compound?
A: 7.06%

Q: And the “Extracted samples … Mean±SD” value [3, 7]?
A: 432.26 ± 28.61 nM

Q: What about the “Extracted samples at 8 °C for 18 h, RE” value [3, 7] of the same compound?
A: 12.97%

Q: And the “Short-term stability … Mean±SD” value [3, 7]?
A: 366.80 ± 3.85 nM

Q: And the “Short-term stability … for 6 h, RE” value [3, 7]?
A: -9.03%

Q: And the “Three freeze-thaw cycles … Mean±SD” value [3, 7]?
A: 413.15 ± 9.39 nM

Q: What about the “Three freeze-thaw cycles (-80 °C ↔ 23 °C), RE” value [3, 7] of the same compound?
A: 5.12%

Q: And the “Short-term stability … Mean±SD” value ([3]; rat, 6 h, 100 nM)?
A: 94.62 ± 9.91 nM

Q: And the IC50 (CYP2A6; recombinant isozyme, mean ± SD of triplicate, unit not given (IC50 classes in μM), read-out: IC50 towards CYP2A6)?
A: > 100 µM

Q: And the CL renal ([4]; urine and plasma, Kang-Ai injection 6 mL/kg iv, read-out: CLR (renal excretory clearance) (converted))?
A: 0.00967 mL/min

Q: And the “fe-U,0–12h (fraction of dose excreted into urine)” value ([4]; rat urine 0–12 h, Kang-Ai injection 6 mL/kg iv)?
A: 10.48 ± 1.31%

Q: What about the “IC50 towards CYP2C9” value (CYP2C9; recombinant isozyme) of the same compound?
A: Activation

Q: What does the source list for O=C1CCC[C@@H]2[C@H]3CCC[N+]4([O-])CCC[C@@H](CN12)[C@@H]34 (stereo partly shown) [Compound A3, Oxymatrine]?
A: Cmax ([1]; rat, in vivo, iv): 423 ± 55.5 µM; Vd ([1]; rat, in vivo, iv): 0.22 L/kg; clearance ([1]; rat, in vivo, iv): 1.86 mL/min/kg and 1.86 mL/min; half-life ([1]; rat, in vivo, iv): 2.73 ± 1.16 h; IC50 (CYP3A4; IC50 towards CYP3A4, recombinant isozyme): > 100 µM; CLB (hepatobiliary clearance) ([2]; male, Sprague-Dawley, rat, in vivo, iv): 31.95 ± 4.76 mL/h; Three freeze-thaw cycles (-80 °C ↔ 23 °C), Mean±SD ([3]; rat, 80 nM): 82.92 ± 3.13 nM; Three freeze-thaw cycles (-80 °C ↔ 23 °C), Mean±SD ([3]; rat, 400 nM): 406.54 ± 20.44 nM; Three freeze-thaw cycles (-80 °C ↔ 23 °C), Mean±SD ([3]; rat, 1600 nM): 1588.35 ± 117.83 nM; Short-term stability at room temperature for 6 h, Mean±SD ([3]; rat, 6 h, 80 nM): 81.69 ± 3.23 nM; Short-term stability at room temperature for 6 h, Mean±SD ([3]; rat, 6 h, 400 nM): 391.75 ± 44.05 nM; Short-term stability at room temperature for 6 h, Mean±SD ([3]; rat, 6 h, 1600 nM): 1629.42 ± 112.91 nM; Extracted samples at 8 °C for 18 h, Mean±SD ([3]; rat, 18 h, 80 nM): 76.52 ± 2.34 nM; Extracted samples at 8 °C for 18 h, Mean±SD ([3]; rat, 18 h, 400 nM): 410.83 ± 21.99 nM; Extracted samples at 8 °C for 18 h, Mean±SD ([3]; rat, 18 h, 1600 nM): 1553.29 ± 127.31 nM; At -80 °C for 48 h, Mean±SD ([3]; rat, 48 h, 80 nM): 83.89 ± 6.74 nM; At -80 °C for 48 h, Mean±SD ([3]; rat, 48 h, 400 nM): 422.79 ± 10.74 nM; At -80 °C for 48 h, Mean±SD ([3]; rat, 48 h, 1600 nM): 1578.58 ± 168.35 nM; IC50 (CYP2A6): > 100 µM; CL renal ([4]; in vivo, iv): 1.18 mL/min; IC50 (CYP2C9; IC50 towards CYP2C9, recombinant isozyme): > 100 µM

From PMC7339578, “Multiple circulating alkaloids and saponins from intravenous Kang-Ai injection inhibit human cytochrome P450 and UDP-glucuronosyltransferase isozymes: potential drug–drug interactions” (Chinese Medicine, 2020)
